Test results taken from ChEMBL document CHEMBL1141507, “Entry into a new class of protein kinase inhibitors by pseudo ring design” (Bioorg Med Chem Lett, 2008).

Columns and labels:
[1] = target: Cyclin-dependent kinase 2 (Homo sapiens, UniProt P24941); test: Inhibition of CDK2
[2] = target: Hepatocyte growth factor receptor (Homo sapiens, UniProt P08581); test: Inhibition of cMet
[3] = target: Fibroblast growth factor receptor 1 (Homo sapiens, UniProt P11362); test: Inhibition of FGFR1
[4] = target: T1, Tyrosine-protein kinase receptor UFO (Homo sapiens, UniProt P30530); test: Inhibition of Axl kinase
T1 sequence (P30530 whole entry): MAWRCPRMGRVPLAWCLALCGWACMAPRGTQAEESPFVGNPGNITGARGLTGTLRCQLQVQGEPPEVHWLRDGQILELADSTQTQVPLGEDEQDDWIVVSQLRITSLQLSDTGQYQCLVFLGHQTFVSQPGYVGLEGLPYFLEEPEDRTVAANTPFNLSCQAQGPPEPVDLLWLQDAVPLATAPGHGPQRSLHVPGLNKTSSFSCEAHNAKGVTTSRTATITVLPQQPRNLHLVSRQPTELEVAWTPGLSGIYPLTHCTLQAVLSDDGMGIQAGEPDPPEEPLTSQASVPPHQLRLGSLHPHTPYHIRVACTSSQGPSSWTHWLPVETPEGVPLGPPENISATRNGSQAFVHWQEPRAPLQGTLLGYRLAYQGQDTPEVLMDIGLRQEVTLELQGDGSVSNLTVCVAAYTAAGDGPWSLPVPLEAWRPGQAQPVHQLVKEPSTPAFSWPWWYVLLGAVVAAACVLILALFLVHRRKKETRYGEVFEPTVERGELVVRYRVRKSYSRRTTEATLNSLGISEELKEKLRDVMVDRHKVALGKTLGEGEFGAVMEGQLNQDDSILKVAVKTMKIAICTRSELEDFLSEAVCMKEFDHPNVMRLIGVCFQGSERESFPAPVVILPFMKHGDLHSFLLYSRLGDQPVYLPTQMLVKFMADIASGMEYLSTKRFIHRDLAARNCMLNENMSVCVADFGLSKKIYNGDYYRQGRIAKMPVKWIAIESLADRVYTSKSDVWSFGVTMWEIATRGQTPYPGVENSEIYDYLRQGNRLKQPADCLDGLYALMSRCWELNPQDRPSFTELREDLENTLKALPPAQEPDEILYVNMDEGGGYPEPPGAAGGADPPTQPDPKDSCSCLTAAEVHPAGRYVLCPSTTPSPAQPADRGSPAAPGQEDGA

[5] = target: Tyrosine-protein kinase ABL1 (Homo sapiens, UniProt P00519)
[6] = target: Tyrosine-protein kinase JAK2 (Homo sapiens, UniProt O60674); test: Inhibition of JAK2
[7] = target: Insulin-like growth factor 1 receptor (Homo sapiens, UniProt P08069); test: Inhibition of IGF1R
Ephrin type-B receptor 4 = target: T2, Ephrin type-B receptor 4 (Homo sapiens, UniProt P54760); test: Inhibition of EphB4
T2 sequence (P54760 whole entry): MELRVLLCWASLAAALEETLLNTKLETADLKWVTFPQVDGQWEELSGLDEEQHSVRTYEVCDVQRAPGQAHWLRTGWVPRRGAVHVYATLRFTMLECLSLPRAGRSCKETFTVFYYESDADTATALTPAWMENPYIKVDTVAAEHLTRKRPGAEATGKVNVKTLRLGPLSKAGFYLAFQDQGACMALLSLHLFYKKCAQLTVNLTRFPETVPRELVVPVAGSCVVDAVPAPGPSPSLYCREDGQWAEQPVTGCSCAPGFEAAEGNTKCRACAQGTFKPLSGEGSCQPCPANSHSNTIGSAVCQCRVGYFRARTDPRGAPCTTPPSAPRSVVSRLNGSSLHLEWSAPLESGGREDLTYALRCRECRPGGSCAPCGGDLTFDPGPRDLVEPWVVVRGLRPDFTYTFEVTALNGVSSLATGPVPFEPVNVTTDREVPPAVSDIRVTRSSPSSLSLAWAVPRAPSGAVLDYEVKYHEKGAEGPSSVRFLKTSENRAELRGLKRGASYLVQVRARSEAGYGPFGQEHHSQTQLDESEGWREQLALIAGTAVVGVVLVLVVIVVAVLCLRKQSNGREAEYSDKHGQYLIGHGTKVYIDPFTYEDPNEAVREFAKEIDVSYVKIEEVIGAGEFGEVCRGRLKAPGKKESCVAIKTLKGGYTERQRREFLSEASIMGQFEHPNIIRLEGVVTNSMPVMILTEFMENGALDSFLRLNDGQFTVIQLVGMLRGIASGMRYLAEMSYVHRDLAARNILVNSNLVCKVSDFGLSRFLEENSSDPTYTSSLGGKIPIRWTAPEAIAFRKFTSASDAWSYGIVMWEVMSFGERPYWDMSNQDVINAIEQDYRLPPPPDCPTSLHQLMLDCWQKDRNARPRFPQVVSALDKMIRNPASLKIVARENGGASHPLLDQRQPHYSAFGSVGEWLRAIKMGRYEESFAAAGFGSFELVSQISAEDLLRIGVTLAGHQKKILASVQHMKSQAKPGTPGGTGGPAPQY

[8] = target: Serine/threonine-protein kinase B-raf (Homo sapiens, UniProt P15056, V600E); test: Inhibition of bRaf V599E mutant
[9] = target: Vascular endothelial growth factor receptor 2 (Homo sapiens, UniProt P35968); test: Inhibition of KDR
[10] = target: Mast/stem cell growth factor receptor Kit (Homo sapiens, UniProt P10721); test: Inhibition of cKit
[11] = Inhibition of PKA
[12] = target: RAC-alpha serine/threonine-protein kinase (Homo sapiens, UniProt P31749); test: Inhibition of PKB
[13] = target: T3, Receptor-type tyrosine-protein kinase FLT3 (Homo sapiens, UniProt P36888); test: Inhibition of FLT3
T3 sequence (P36888 whole entry): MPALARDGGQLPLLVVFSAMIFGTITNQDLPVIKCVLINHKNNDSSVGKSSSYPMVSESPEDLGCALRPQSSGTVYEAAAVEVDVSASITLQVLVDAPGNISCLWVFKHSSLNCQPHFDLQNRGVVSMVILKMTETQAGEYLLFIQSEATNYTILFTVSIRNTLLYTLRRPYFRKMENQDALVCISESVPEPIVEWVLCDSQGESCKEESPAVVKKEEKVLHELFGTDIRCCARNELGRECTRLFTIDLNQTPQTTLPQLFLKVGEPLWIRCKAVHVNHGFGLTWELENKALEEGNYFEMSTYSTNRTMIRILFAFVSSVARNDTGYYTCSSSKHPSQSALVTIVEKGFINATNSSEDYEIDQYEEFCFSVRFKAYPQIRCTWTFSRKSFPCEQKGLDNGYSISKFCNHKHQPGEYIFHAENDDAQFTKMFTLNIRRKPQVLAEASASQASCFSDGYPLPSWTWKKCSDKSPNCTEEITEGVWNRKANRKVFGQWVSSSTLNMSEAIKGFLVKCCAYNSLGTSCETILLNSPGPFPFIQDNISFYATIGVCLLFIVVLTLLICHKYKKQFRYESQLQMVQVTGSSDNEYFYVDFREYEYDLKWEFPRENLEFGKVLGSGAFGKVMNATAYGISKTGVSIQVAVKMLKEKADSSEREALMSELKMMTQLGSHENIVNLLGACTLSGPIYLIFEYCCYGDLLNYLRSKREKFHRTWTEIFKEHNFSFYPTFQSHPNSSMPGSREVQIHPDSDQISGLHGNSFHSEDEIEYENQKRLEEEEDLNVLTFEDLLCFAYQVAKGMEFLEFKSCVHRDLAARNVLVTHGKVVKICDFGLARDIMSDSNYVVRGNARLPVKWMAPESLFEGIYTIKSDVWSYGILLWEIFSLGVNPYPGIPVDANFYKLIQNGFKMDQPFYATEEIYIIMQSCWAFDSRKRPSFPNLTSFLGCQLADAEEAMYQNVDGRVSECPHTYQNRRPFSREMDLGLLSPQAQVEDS

[14] = Inhibition of p38 kinase
Angiopoietin-1 receptor = Angiopoietin-1 receptor (Homo sapiens, UniProt Q02763); test: Inhibition of Tie2
[15] = target: Proto-oncogene tyrosine-protein kinase Src (Homo sapiens, UniProt P12931); test: Inhibition of cSrc
Chain of Proto-oncogene tyrosine-protein kinase Src (P12931 2-536 limits assumed): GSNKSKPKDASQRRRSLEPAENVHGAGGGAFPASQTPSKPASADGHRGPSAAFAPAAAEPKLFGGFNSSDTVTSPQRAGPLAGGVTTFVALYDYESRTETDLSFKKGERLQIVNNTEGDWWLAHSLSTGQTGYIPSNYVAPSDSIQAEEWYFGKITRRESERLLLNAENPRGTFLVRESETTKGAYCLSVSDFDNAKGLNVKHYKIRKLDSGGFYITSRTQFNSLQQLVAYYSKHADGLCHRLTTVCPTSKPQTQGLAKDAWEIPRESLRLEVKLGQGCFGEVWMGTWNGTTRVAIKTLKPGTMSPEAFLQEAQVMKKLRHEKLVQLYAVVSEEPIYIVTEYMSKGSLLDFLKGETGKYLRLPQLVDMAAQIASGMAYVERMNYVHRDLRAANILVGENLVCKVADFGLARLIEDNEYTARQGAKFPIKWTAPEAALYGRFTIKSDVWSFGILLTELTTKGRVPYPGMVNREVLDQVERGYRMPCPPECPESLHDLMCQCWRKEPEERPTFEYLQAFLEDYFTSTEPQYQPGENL

Chain of Vascular endothelial growth factor receptor 2 (P35968 whole entry): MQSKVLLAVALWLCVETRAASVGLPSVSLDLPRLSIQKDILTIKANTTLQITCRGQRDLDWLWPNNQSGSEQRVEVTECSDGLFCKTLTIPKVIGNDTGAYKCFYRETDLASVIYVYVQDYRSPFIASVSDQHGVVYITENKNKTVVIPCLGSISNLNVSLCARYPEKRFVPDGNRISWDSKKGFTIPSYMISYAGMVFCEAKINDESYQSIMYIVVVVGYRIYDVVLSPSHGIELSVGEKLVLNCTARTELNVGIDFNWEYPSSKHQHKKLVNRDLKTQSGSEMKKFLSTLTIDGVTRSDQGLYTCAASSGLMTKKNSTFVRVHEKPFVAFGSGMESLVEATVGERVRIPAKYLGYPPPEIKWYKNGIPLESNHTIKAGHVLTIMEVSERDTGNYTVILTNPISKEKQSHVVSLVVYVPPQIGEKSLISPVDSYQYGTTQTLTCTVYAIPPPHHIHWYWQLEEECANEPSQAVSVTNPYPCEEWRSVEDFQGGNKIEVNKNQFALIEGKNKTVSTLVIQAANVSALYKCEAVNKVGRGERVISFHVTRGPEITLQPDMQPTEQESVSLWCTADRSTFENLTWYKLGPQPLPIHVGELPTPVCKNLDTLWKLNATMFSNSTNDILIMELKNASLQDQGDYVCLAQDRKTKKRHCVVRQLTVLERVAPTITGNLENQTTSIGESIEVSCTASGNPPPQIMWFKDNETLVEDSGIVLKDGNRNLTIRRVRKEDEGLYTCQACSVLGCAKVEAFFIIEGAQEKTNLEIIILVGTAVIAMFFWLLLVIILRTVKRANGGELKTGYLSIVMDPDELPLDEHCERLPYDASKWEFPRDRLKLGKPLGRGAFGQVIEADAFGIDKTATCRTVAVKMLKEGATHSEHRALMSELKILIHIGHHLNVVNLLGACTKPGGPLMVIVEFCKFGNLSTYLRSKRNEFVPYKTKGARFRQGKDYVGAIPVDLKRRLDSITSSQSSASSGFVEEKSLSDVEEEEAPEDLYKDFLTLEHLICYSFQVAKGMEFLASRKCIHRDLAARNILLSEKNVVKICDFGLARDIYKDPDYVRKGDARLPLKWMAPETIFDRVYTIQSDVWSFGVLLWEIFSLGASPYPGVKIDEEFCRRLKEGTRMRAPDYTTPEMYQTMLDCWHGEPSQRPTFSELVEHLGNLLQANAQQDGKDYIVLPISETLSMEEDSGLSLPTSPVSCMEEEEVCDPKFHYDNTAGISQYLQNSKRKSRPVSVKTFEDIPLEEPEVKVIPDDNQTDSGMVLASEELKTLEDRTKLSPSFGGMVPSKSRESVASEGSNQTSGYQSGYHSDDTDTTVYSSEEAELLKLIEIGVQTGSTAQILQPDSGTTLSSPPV
Chain of Insulin-like growth factor 1 receptor (P08069 31-736 limits assumed): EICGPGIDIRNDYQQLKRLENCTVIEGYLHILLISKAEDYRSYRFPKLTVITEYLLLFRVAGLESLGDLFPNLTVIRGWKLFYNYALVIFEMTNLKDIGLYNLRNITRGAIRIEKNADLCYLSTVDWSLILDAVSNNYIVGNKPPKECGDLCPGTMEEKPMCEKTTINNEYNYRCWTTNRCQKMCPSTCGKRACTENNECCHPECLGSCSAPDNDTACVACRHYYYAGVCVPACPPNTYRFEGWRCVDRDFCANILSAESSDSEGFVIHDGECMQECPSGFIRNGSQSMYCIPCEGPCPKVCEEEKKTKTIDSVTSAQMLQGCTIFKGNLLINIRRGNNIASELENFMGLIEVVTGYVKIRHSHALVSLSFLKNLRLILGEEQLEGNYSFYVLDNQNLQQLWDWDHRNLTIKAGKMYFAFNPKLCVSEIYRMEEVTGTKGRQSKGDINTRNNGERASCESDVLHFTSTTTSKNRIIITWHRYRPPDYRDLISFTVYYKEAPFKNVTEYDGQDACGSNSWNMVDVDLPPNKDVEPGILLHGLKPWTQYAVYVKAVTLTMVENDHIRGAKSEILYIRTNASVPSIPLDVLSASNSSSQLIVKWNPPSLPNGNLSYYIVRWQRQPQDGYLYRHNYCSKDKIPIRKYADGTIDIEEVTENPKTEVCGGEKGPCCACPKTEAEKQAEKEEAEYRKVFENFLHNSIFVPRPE
Chain of Insulin-like growth factor 1 receptor (P08069 741-1367 limits assumed): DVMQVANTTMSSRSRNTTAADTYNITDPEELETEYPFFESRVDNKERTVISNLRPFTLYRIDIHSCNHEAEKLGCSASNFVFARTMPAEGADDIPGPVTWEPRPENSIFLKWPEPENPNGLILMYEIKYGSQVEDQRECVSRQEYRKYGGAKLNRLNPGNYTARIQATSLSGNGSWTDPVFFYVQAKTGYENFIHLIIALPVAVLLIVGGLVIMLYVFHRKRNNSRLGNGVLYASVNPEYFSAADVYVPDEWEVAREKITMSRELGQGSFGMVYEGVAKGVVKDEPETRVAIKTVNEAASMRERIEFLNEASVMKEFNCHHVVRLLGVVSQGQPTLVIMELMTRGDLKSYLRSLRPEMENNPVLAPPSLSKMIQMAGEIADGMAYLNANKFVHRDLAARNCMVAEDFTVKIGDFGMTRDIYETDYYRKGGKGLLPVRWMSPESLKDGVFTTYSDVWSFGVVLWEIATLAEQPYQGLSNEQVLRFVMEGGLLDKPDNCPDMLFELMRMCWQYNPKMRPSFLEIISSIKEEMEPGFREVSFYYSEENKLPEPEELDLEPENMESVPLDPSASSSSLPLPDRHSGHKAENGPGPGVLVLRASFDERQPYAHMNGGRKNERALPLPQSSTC
Chain of Serine/threonine-protein kinase B-raf (P15056 2-766 V600E limits assumed): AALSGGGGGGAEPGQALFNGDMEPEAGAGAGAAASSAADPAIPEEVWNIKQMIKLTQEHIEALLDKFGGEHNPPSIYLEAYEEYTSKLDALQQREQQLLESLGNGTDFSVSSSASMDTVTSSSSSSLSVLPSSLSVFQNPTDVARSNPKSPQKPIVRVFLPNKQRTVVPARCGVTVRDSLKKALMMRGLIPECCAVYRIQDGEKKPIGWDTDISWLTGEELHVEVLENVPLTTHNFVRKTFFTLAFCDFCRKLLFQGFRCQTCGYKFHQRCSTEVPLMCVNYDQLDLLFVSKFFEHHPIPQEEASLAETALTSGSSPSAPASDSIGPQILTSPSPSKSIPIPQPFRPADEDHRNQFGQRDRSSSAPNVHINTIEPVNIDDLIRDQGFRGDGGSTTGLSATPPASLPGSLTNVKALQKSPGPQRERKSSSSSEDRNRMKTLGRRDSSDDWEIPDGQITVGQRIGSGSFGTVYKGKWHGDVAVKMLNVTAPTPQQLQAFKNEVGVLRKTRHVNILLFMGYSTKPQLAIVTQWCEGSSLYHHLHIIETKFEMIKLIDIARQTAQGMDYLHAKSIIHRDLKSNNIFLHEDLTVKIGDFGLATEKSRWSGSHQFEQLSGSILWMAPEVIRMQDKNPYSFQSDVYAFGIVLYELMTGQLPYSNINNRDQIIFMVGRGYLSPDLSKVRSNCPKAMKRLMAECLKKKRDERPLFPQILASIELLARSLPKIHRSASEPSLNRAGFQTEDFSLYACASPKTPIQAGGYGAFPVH
Chain of Fibroblast growth factor receptor 1 (P11362 whole entry): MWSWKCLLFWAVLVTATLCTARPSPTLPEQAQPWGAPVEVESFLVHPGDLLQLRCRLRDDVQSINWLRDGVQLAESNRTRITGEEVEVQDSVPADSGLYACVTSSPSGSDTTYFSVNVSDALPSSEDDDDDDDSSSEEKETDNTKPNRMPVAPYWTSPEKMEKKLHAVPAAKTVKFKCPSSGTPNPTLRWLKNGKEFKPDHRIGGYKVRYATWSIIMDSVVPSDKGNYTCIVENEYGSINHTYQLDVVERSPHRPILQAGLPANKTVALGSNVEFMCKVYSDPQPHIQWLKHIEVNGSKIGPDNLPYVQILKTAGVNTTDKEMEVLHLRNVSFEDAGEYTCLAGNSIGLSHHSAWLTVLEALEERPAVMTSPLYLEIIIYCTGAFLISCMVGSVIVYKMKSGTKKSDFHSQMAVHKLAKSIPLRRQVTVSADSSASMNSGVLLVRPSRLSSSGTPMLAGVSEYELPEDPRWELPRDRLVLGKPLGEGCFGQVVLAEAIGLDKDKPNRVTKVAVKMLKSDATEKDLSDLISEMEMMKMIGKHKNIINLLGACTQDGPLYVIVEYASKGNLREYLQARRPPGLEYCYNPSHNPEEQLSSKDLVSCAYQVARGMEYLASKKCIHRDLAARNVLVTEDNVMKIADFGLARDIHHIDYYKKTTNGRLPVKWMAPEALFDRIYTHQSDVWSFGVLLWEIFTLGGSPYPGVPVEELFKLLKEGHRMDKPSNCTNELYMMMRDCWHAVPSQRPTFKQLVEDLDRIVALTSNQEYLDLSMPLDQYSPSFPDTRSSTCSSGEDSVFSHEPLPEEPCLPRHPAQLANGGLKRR

**Q.** What does the source list for `CCN(CC)CCOc1ccc(Nc2cc(NC(=O)Nc3c(Cl)cccc3Cl)ncn2)cc1`?
**A.** IC50 [1]: > 10 µM; IC50 [2]: > 10 µM; IC50 [3]: 0.57 µM; IC50 [4]: > 10 µM; IC50 [5]: 0.25 µM; IC50 [6]: > 10 µM; IC50 [7]: > 10 µM; IC50 (Ephrin type-B receptor 4): 0.43 µM; IC50 [8]: 0.15 µM; IC50 [9]: 0.96 µM; IC50 [10]: 0.93 µM; IC50 [11]: > 10 µM; IC50 [12]: > 10 µM; IC50 [13]: > 10 µM; IC50 [14]: 0.35 µM; IC50 (Angiopoietin-1 receptor): 0.3 µM; IC50 [15]: 0.066 µM
